The text below walks through data of ChEMBL document CHEMBL5291721, “A preclinical secondary pharmacology resource illuminates target-adverse drug reaction associations of marketed drugs” (Nat Commun, 2023).

In experiment [1] the target is T1, 5-hydroxytryptamine receptor 1A (Homo sapiens, UniProt P08908).
T1 sequence (P08908 whole entry): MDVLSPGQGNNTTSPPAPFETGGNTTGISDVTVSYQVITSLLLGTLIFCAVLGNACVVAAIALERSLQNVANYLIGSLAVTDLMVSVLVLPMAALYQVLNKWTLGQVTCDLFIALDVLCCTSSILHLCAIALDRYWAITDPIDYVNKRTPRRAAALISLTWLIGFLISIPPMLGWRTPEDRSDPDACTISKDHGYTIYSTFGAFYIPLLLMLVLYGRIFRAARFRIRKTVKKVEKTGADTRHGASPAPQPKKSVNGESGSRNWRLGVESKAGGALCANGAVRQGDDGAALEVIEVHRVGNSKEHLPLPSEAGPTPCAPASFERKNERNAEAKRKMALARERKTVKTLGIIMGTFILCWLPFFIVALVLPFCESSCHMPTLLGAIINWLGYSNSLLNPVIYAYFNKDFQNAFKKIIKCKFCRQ

The next experiment deals with T2, Progesterone receptor (Homo sapiens, UniProt P06401).
T2 sequence (P06401 whole entry): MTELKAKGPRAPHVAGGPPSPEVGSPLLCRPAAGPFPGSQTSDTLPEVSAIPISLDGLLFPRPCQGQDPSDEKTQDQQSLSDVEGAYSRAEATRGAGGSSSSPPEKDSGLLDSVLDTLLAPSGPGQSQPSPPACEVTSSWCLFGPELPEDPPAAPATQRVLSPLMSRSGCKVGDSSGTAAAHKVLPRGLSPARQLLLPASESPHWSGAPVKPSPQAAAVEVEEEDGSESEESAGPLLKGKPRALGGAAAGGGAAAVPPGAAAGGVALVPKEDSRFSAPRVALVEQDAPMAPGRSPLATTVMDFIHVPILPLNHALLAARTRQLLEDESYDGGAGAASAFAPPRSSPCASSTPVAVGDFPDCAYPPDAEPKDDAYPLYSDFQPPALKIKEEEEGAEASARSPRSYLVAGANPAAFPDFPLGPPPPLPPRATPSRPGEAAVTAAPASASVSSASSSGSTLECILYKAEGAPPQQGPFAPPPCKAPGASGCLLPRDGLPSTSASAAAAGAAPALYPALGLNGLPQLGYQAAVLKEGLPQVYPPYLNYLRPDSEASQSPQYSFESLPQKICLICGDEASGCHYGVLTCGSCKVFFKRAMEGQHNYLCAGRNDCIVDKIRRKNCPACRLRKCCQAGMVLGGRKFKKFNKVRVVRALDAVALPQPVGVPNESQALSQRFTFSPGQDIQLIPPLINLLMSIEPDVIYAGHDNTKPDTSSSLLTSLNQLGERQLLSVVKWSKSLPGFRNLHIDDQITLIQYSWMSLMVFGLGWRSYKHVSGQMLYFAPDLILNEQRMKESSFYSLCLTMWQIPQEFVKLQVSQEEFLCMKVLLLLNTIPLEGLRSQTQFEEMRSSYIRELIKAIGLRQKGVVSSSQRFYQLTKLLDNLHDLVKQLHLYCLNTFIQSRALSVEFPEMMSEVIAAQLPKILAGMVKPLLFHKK

The target of the next experiment is Prothrombin (Homo sapiens, UniProt P00734). The format is functional.
The next experiment addresses T3, Adenosine receptor A3 (Homo sapiens, UniProt P0DMS8).
T3 sequence (P0DMS8 whole entry): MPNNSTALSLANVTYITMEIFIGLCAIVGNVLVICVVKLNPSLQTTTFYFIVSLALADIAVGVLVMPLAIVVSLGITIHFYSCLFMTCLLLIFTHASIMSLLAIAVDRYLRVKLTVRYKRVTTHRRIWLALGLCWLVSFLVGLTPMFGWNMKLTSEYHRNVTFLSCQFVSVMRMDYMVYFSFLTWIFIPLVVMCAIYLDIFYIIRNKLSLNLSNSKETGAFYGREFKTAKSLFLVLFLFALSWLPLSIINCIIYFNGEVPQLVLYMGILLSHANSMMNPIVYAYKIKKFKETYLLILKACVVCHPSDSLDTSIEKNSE

For experiment [2], the target named is Vascular endothelial growth factor receptor 2 (Homo sapiens, UniProt P35968). The format is functional.
Chain of Vascular endothelial growth factor receptor 2 (P35968 whole entry): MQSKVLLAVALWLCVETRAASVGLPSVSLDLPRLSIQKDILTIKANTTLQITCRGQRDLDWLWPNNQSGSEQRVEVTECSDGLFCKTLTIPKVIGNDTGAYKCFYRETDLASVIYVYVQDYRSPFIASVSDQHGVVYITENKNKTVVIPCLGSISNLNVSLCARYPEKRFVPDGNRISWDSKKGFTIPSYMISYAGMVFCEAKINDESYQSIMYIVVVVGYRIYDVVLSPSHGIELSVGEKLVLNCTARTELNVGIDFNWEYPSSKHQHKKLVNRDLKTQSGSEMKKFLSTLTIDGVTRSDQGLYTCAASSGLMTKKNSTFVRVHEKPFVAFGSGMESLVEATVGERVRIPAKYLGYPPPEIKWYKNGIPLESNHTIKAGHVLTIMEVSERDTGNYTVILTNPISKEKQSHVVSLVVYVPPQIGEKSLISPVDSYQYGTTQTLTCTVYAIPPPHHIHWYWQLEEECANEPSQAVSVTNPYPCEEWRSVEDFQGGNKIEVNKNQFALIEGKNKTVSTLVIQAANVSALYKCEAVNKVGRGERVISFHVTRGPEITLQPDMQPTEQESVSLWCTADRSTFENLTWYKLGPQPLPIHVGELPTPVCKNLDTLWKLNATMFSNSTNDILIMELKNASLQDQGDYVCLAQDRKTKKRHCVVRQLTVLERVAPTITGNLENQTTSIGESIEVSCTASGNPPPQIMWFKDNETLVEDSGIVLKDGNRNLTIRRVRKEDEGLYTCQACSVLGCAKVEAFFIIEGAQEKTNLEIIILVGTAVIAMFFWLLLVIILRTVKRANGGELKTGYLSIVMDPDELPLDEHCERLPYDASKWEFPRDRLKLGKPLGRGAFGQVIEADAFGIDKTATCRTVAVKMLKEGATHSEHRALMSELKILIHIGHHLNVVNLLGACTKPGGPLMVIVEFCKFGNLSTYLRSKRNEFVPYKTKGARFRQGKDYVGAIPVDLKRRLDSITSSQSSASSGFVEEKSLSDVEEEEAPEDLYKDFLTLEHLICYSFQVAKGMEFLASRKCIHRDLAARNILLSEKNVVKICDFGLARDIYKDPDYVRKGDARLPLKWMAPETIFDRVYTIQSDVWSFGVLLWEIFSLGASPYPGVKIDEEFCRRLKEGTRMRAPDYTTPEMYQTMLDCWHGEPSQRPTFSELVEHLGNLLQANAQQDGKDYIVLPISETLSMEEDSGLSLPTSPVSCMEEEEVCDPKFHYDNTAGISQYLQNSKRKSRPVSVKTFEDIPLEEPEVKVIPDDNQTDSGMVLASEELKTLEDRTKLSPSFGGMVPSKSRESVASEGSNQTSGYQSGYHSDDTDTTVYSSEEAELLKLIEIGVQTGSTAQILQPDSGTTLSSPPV
The target of experiment [3] is T4, Muscarinic acetylcholine receptor M1 (Homo sapiens, UniProt P11229).
T4 sequence (P11229 whole entry): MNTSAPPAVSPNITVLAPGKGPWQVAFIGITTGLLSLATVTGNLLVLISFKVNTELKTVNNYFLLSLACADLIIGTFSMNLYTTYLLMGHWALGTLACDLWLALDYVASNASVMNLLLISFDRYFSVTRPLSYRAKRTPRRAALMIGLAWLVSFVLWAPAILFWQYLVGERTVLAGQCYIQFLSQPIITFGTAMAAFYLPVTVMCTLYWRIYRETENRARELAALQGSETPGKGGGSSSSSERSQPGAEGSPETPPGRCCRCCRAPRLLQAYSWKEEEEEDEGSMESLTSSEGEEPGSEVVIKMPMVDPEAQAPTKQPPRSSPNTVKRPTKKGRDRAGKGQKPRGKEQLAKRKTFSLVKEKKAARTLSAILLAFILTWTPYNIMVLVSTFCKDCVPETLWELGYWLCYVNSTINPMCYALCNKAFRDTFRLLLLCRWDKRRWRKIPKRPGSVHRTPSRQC
Type of experiment: functional, cell-based.

The target of experiment [4] is T5, Thromboxane A2 receptor (Homo sapiens, UniProt P21731).
T5 sequence (P21731 whole entry): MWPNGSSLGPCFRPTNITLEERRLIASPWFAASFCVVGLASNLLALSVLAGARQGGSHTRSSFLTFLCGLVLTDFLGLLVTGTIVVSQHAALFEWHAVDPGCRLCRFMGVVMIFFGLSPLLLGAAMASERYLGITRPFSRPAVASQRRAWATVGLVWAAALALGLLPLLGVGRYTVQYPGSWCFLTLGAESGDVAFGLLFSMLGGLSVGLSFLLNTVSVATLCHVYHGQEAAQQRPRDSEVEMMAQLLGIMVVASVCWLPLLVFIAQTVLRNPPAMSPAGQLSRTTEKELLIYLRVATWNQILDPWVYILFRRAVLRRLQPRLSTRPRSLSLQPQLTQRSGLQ
Type of experiment: functional, cell-based.

Experiment [5] addresses T5, Thromboxane A2 receptor. The format is functional, cell-based. This is another data set of the same source.
Experiment [6] addresses 5-hydroxytryptamine receptor 2B (Homo sapiens, UniProt P41595). Type of experiment: functional, cell-based.

Broadly, the AC50 is the midpoint of the concentration-response curve, whichever way the signal moves. Higher therefore signals activity only at high concentration.
Note: assay procedure not described here.

Chain of 5-hydroxytryptamine receptor 2B (P41595 whole entry): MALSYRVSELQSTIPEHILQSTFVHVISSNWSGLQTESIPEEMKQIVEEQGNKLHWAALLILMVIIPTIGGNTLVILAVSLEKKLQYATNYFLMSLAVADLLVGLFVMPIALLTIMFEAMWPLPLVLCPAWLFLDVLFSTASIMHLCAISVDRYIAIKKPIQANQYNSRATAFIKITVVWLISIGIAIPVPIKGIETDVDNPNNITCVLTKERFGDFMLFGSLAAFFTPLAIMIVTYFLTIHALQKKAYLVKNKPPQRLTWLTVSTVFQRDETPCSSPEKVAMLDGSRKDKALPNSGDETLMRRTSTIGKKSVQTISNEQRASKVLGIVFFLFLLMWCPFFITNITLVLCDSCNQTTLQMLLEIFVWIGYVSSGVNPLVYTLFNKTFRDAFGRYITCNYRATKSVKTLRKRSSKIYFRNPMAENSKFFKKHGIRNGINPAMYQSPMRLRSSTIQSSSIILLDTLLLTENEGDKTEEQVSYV

On to `CCN(CC)CCOC(=O)C(c1ccccc1)C1CCCCC1` (centres undefined) [DROFENINE], for which the AC50 is 2.71 µM in experiment [1]; above 30 µM at Progesterone receptor; above 30 µM on Prothrombin; above 30 µM on Adenosine receptor A3; above 30 µM in experiment [2]; above 30 µM in experiment [3]. The AC50 (on Thromboxane A2 receptor [4]; at Thromboxane A2 receptor [5]; in experiment [6]) was above 30 µM each time.
In the case of `CC(=O)OCC(=O)[C@@]1(O)CC[C@H]2[C@@H]3CCC4=CC(=O)C=C[C@]4(C)[C@@]3(Cl)[C@@H](Cl)C[C@@]21C` [DICHLORISONE ACETATE], the AC50 is above 30 µM in [1]; 0.173 µM on Progesterone receptor; above 30 µM at Prothrombin; above 30 µM at Adenosine receptor A3; above 30 µM in [2]; above 30 µM in experiment [3]. Further, the half-maximal activity concentration (AC50) (at Thromboxane A2 receptor [4]; on Thromboxane A2 receptor [5]; in [6]) was above 30 µM each time.
In the case of `Cc1cc(NS(=O)(=O)c2ccc(N)cc2)nc(C)n1` [SULFISOMIDINE], the AC50 (in [1]; on Progesterone receptor; on Prothrombin; on Adenosine receptor A3; in experiment [2]; in experiment [3]) was above 30 µM each time. Further, the half-maximal activity concentration (AC50) (on Thromboxane A2 receptor [4]; on Thromboxane A2 receptor [5]; in experiment [6]) was above 30 µM in each case.
For `CC(C)(C)NCC(O)COc1cccc2c1SCCC2` (centres undefined) [TERTATOLOL], the AC50 in experiment [1] is 0.0569 µM; at Progesterone receptor, above 30 µM; at Prothrombin it was above 30 µM; at Adenosine receptor A3, above 30 µM; in [2], above 30 µM; in experiment [3], above 30 µM. In addition, the AC50 (at Thromboxane A2 receptor [4]; on Thromboxane A2 receptor [5]; in experiment [6]) was above 30 µM each time.
As for `CC(C)COC(=O)OCN1C(=O)CN(CCN2CC(=O)N(COC(=O)OCC(C)C)C(=O)C2)CC1=O` [SOBUZOXANE], the AC50 (in experiment [1]; on Progesterone receptor; at Prothrombin; at Adenosine receptor A3; in experiment [2]; in experiment [3]) was above 30 µM each time. The AC50 (on Thromboxane A2 receptor [4]; on Thromboxane A2 receptor [5]; in experiment [6]) was above 30 µM throughout.
For `Clc1ccc(C(OCCN2CCCCC2)c2ccccc2)cc1` (centres undefined) [CLOPERASTINE], the concentration at half-maximal activity (AC50) in [1] was 20.1 µM; at Progesterone receptor, above 30 µM; on Prothrombin, above 30 µM; at Adenosine receptor A3, above 30 µM; in experiment [2], above 30 µM; in experiment [3], above 30 µM. In addition, the values for the AC50 (at Thromboxane A2 receptor [4]; on Thromboxane A2 receptor [5]; in experiment [6]) were above 30 µM, 17 µM and above 30 µM, respectively.
Regarding `CCCCOC(=O)C(=O)[C@H]1[C@H](C)C[C@H]2[C@@H]3C[C@H](F)C4=CC(=O)C=C[C@]4(C)[C@H]3[C@@H](O)C[C@@]21C` [FLUOCORTIN BUTYL], the AC50 in experiment [1] was above 30 µM; at Progesterone receptor, 0.711 µM; on Prothrombin it was above 30 µM; on Adenosine receptor A3, 7.82 µM; in experiment [2], above 30 µM; in experiment [3] it was above 30 µM. The half-maximal activity concentration (AC50) (at Thromboxane A2 receptor [4]; on Thromboxane A2 receptor [5]; in experiment [6]) was above 30 µM throughout.
In the case of `NC1=NCC2c3ccccc3Cc3ccccc3N12` (centres undefined) [EPINASTINE], the AC50 in experiment [1] was 1.28 µM; on Progesterone receptor, above 30 µM; at Prothrombin, above 30 µM; on Adenosine receptor A3, above 30 µM; in [2], above 30 µM; in experiment [3], above 30 µM. Besides, the half-maximal activity concentration (AC50) (on Thromboxane A2 receptor [4]; on Thromboxane A2 receptor [5]; in experiment [6]) was above 30 µM throughout.
On to `CC1=C(/C=C/C(C)=C/C=C/C(C)=C/C=C/C=C(C)/C=C/C=C(C)/C=C/C2=C(C)CCCC2(C)C)C(C)(C)CCC1` [BETA CAROTENE], for which the AC50 (in experiment [1]; at Progesterone receptor; at Prothrombin; at Adenosine receptor A3; in experiment [2]; in experiment [3]) was above 30 µM each time. For the same molecule, the AC50 (on Thromboxane A2 receptor [4]; on Thromboxane A2 receptor [5]; in experiment [6]) was above 30 µM throughout.
Consider `Nc1ccncc1N` [AMIFAMPRIDINE], for which the AC50 (in [1]; on Progesterone receptor; on Prothrombin; on Adenosine receptor A3; in experiment [2]; in [3]) was above 30 µM throughout. In addition, the AC50 (at Thromboxane A2 receptor [4]; on Thromboxane A2 receptor [5]; in experiment [6]) was above 30 µM in each case.
For `O=C(O)c1ccccc1C(=O)Nc1ccc(S(=O)(=O)Nc2nccs2)cc1` [PHTHALYLSULFATHIAZOLE], the AC50 in experiment [1] was above 10 µM; on Progesterone receptor, above 30 µM; at Prothrombin it was above 30 µM; on Adenosine receptor A3 it was above 30 µM; in experiment [2], above 30 µM; in [3], above 30 µM. For the same molecule, the half-maximal activity concentration (AC50) (at Thromboxane A2 receptor [4]; at Thromboxane A2 receptor [5]; in experiment [6]) was above 30 µM throughout.
